Values of other authors, collected in US20090131395A1, “BIPHENYLAZETIDINONE CHOLESTEROL ABSORPTION INHIBITORS” (MICROBIA, INC., priority 2005, published 2009).

Molecular target: T1, ileal Na+/bile acid cotransporter (Homo sapiens, UniProt Q12908)
T1 sequence (Q12908 1-348): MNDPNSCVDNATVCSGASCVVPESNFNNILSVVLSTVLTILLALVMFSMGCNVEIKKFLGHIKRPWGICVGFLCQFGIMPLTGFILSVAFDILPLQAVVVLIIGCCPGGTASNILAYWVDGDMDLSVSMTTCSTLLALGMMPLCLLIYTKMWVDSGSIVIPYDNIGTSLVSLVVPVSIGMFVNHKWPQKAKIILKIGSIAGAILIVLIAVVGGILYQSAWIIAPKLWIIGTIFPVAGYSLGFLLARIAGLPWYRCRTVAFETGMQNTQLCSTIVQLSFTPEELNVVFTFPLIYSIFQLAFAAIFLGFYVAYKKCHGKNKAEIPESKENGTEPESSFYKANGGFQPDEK
Settings: in vivo

Structure (SMILES): O=C1[C@H](CC[C@H](O)c2ccc(F)cc2)[C@@H](c2ccc(O)cc2)N1c1ccc(F)cc1 [ezetimibe, (3R,4S)-1-(4-fluorophenyl)-3-[(3S)-3-(4-fluorophenyl)-3-hydroxypropyl]-4-(4-hydroxyphenyl)azetidin-2-one]
- inhibition of the absorption of taurocholic acid: does not inhibit the absorption of taurocholic acid
